These results are taken from US8105836B2, “Chemical inhibitors of mismatch repair” (priority 2001, dated 2012).

Each structure is given as a SMILES string. Entries after “also recorded” stand apart in the source; their conditions may differ.

Data set [1] deals with MMR activity (ATPase-dependent). The conditions noted are these: in vitro assays; Galio 1999, Allen 1997, Bjornson 2000; cited from earlier work.
For data set [2], the system named is mismatch repair (MMR) in H36 pCAR-OF cells. It is filed as cell-based, murine. Particulars: for generation of β-galactosidase positive cells / MI and shifting of the polynucleotide tract in the pCAR-OF reporter: H36 pCAR-OF cells.
Data set [3] relates to human HEK293 cells (BAT26 microsatellite marker). Briefly: BAT26 microsatellite instability of endogenous loci in 293 cells (PCR, cloning, sequencing). It is filed as cell-based. As for the experimental part:
(§1) Briefly, 10^5 cells were grown in control medium or 250 μM DMA, a concentration that is found to be non-toxic, for 14 to 17 days. Cells are then harvested and genomic DNA isolated using the salting out method (Nicolaides, N. C. et al. (1991) Mol. Cell. Biol. 11:6166-6176.).
Various amounts of test DNAs from HCT116 (a human colon epithelial cell line) and 293 were first used to determine the sensitivity of our microsatellite test. The BAT26 alleles are known to be heterogeneous between these two cell lines and the products migrate at different molecular weights (Nicolaides personal observation). DNAs were diluted by limiting dilution to determine the level of sensitivity of the assay. DNAs were PCR amplified using the BAT26F: 5′-[…]-3′ (SEQ ID NO:43) and the BAT26R: 5′-[…]-3′ (SEQ ID NO:44) primers in buffers as described (Nicolaides, N. C. et al. (1995) Genomics 30:195-206). Briefly 1 pg to 100 ngs of DNA were amplified using the following conditions: 94° C. for 30 sec, 58° C. for 30 sec, 72° C. for 30 sec for 30 cycles. […]
To measure for microsatellite stability in 293 cells grown with or without DMA, 0.1 ngs of DNA from DMA-treated or control 293 cells were amplified using the reaction conditions above. […] Fifty bacterial colonies were analyzed for BAT26 structure by directly adding an aliquot of live bacteria to the PCR mix. […]

The test system of data set [4] is Arabidopsis thaliana. Nature of the data set: Toxicity curve on Arabidopsis seeds on MS phytagar plates (root and shoot formation). It is filed as in vivo. Particulars: for Dead: non-germinated seeds. As for the experimental part:
Briefly, AT seeds were sterilized with straight commercial bleach and 100 seeds were plated in 100 mm Murashige and Skoog (MS) phytagar (Life Technology) plates with increasing amounts of DMA (ranging from 100 μm to 50 mM). A similar amount of seeds were plated on MS phytagar only or in MS phytagar with increasing amounts of EMS (1001M to 50 mM), a mutagen commonly used to mutate AT seeds (McCallum, C. M. et al. (2000) Nat. Biotechnol. 18:455-457). Plates were grown in a temperature-controlled, fluorescent-lighted humidifier (Percival Growth Chamber) for 10 days. After 10 days, seeds were counted to determine toxicity levels for each compound. […] Plantlets that were identical to untreated seeds were scored healthy. Seeds with stunted root or shoot formation were scored intermediate (inter). Non-germinated seeds were scored dead.

The test system of data set [5] is Arabidopsis thaliana. Nature of the data set: New phenotypes in offspring of chemically exposed Arabidopsis plants. It is filed as in vivo. The conditions noted are these: for offspring with small light green appearance (altered phenotype): offspring grown in standard soil conditions for 17 days, FIG. 6; for phenotypically distinct plants among offspring at day 10: offspring of plants grown from seeds on 2 mM DMA or 250 μM EMS for 10 days. As for the experimental part:
Next, 50 seeds were plated in two 150 mm dishes containing 2 mM DMA, 250 μM EMS or no drug. Seeds were grown for 10 days and then 10 plants from each plate were transferred to soil. All plants appeared to be similar in color and height. Plants were grown at room temperature with daily cycles of 18 hr light and 6 hr dark. After 45 days seeds are harvested from siliques and stored in a desiccator at 4° C. for 72 hours. Seeds are then sterilized and 100 seeds from each plant is sown directly into water-saturated soil and grown at room temperature with daily cycles of 18 hr light and 6 hr dark. […] These 7 altered plants were light green in color and appeared to grow slower. […] DMA-exposed plants produced offspring that were yellow in appearance in contrast to dark green, which is always found in wild-type plants. In addition, the yellow plants were also shorter. After 30 days, most wild-type plants produced flowers and siliques, while the 7 mutants just began flowering. After 45 days, control plants were harvested while mutant plants were harvested 10 to 15 days later.

Data set [6] relates to Pichia yeast containing GUS-OF reporter. Briefly: Pichia yeast pGUS-OF MMR-sensitive reporter assay (X-glu plates). Particulars: GUS-OF Pichia incubated with 300 μM chemical for 48 hours. Type of data set: cell-based. As for the experimental part:
Briefly, the GUS-OF and GUS-IF gene, which contains a polyA repeat at the N-terminus of the protein was subcloned from the pCR-IF-GUS and pCR-OF-GUS plasmids into the EcoRI site of the pGP vector, which is a consitutively expressed yeast vector containing a zeocin resistance gene as selectable marker. pGP-GUS-IF and pGP-GUS-OF vectors were electroporated into competent Pichia cells using standard methods known by those skilled in the art. Cells were plated on YPD agar (10 g/L yeast extract; 20 g/L peptone; 2% glucose; 1.5% bactoagar) plates containing 100 μg/ml zeocin. Recombinant yeast are then analyzed for GUS expression/function by replica plating on YPD agar plates containing 100 μg/ml zeocin plus 1 mg/ml X-glu (5-bromo-4-chloro-3-indoyl-beta-D-glucuronide sodium salt) and grown at 30° C. for 16 hours. […] None of the yeast containing the GUS-OF turned blue in the presence of the X-glu substrate under normal growth conditions.
After incubation, yeast were plated on YPD-ZEO-X-GLU plates and grown at 30° C. for 16 hours.

For data set [7], the system named is human HEK293 cells. Nature of the data set: Toxicity of DMA to 293 cells in culture. Particulars: 14 to 17 days. Type of data set: cell-based. As for the experimental part:
as §1

The conditions of data set [8]: at high concentrations; Myers et al. 1988; cited from earlier work.
Data set [9] has as its system MMR defective cell lines. Particulars: mammalian cells; Chen et al. 2000; cited from earlier work.
[10] abbreviates: Arabidopsis thaliana, in vivo, 10 days, 2.5 mM.
The mark [11] stands for this setting: Arabidopsis thaliana, in vivo, 10 days, 5 mM.
[12] abbreviates: Arabidopsis thaliana, in vivo, 10 days, 10 mM.
Where [13] appears, read: Arabidopsis thaliana, in vivo, 10 days, 12.5 mM.
The mark [14] stands for this setting: Arabidopsis thaliana, in vivo, 10 days, 25 mM.
Where [15] appears, read: Arabidopsis thaliana, in vivo, 10 days, 50 mM.

As for `Nc1ncnc2c1ncn2[C@@H]1O[C@H](COP(=O)(O)OP(=O)(O)NP(=O)(O)O)[C@@H](O)[C@H]1O` [AMP-PNP], in data set [1], the “effect on MMR activity in vitro” value was “block the MMR activity”.
With `Nc1ncnc2c1ncn2[C@@H]1O[C@H](COP(=O)(O)OP(=O)(O)OP(O)(O)=S)[C@@H](O)[C@H]1O` [ATP[gamma]S], the “effect on MMR activity in vitro” value in [1] is “block the MMR activity”.
On to `Cc1c2ccccc2c(C)c2ccccc12` [DMA, 9,10-dimethylanthracene], for which the “generation of β-galactosidase positive cells / MI and shifting of the polynucleotide tract in the pCAR-OF reporter” value in [2] is on record as “produces b-gal positive H36 pCAR-OF cells”. Also, the “cells positive for b-gal” value in [2] (H36 pCAR-OF cells grown in the presence of DMA, FIG. 3) is “Approximately 3%”. Besides, the “BAT26 polyA repeat alleles by sequence analysis of clones” value in data set [3] (293 cells treated with DMA, control clone homozygous for 26 nt polyA repeat) was “multiple alleles ranging from the wild-type with 26 polyA repeat to shorter alleles (24 polyA repeat) and larger alleles (28 polyA repeat)”. Moreover, the “altered BAT26 alleles (microsatellite instability)” value in [3] (293 cells, 250 μM DMA, 14-17 days, PCR and gel electrophoresis) was “showed the presence of an altered allele; also recorded: presence of a new allele in cells treated with DMA”. In addition, in [4] (Arabidopsis seeds, continuous culture, from Table 2), the “concentration at which toxicity occurs” value came to 10000 µM. Further, the Dead is recorded as 0 per 100 seeds in data set [4] (concentration 0.1, 10 days); 0 per 100 seeds in [4] (concentration 0.5, 10 days); 0 per 100 seeds in data set [4] (concentration 1.0, 10 days); 0 per 100 seeds in [4] (concentration 2.5, 10 days); 0 per 100 seeds in data set [4] (concentration 5.0, 10 days); 0 per 100 seeds in data set [4] (concentration 10, 10 days). The Dead in [4] (concentration 12.5, 10 days) is 0 per 100 seeds; in [4] (concentration 25, 10 days) it was 0 per 100 seeds. Further, the Inter in [4] (concentration 0.1, 10 days, stunted root or shoot formation scored intermediate) worked out at 0 per 100 seeds; in [4] (concentration 0.5, 10 days, stunted root or shoot formation) it was 0 per 100 seeds; in [4] (concentration 1.0, 10 days, stunted root or shoot formation) it was 0 per 100 seeds; in data set [4] (concentration 50, 10 days, stunted root or shoot formation), 0 per 100 seeds. For the same compound, the Healthy was found to be 0 per 100 seeds in data set [4] (concentration 12.5, 10 days on MS phytagar); 0 per 100 seeds in data set [4] (concentration 25, 10 days on MS phytagar); 0 per 100 seeds in [4] (concentration 50, 10 days on MS phytagar). The “offspring with small light green appearance (altered phenotype)” value in [5] is recorded as “Six”. For the same compound, the “phenotypically distinct plants among offspring at day 10” value in data set [5] was 7 out of 118. The “blue subclones (functional GUS) on YPD-ZEO-X-GLU plates” value in data set [6] is “a subset of yeast expressing GUS-OF contain blue subclones”. Further, the “concentration found to be non-toxic” value in data set [7] was determined as 250 µM. The mutagenic activity entry in data set [8] is reported as “acts as a potent weak mutagen”.
As to `CCOS(C)(=O)=O` [EMS, ethyl methanesulfonate], the “generation of β-galactosidase positive cells / MI and shifting of the polynucleotide tract in the pCAR-OF reporter” value in [2] is “did not result in MI and/or the shifting of the polynulceotide tract in the pCAR-OF reporter”. Besides, the “concentration at which toxicity occurs” value in data set [4] (Arabidopsis thaliana, in vivo, 10 days) worked out at 250 µM. For the same compound, the Inter in [4] (Arabidopsis thaliana, in vivo, 10 days, 0.1 mM) is listed as 0 per 100 cells; in data set [4] (setting [10]) it was 0 per 100 cells; in [4] (setting [11]) it was 0 per 100 cells; in data set [4] (setting [12]), 0 per 100 cells; in data set [4] (setting [13]), 0 per 100 cells; in data set [4] (setting [14]) it was 0 per 100 cells. Further, the Inter in data set [4] (setting [15]) is 0 per 100 cells. Also, the Healthy in data set [4] (setting [10]), in [4] (setting [11]), in [4] (setting [12]), in [4] (setting [13]), in data set [4] (setting [14]) and in data set [4] (setting [15]) was 0 per 100 cells throughout. Further, the “offspring with small light green appearance (altered phenotype)” value in data set [5] is “No plants with altered phenotypes were observed”. In addition, the “phenotypically distinct plants among offspring at day 10” value in data set [5] is on record as “no phenotypic difference was observed”. For the same compound, in data set [6], the “blue subclones (functional GUS) on YPD-ZEO-X-GLU plates” value is “none are seen”.
In the case of `COc1ccc2nc3cc(Cl)ccc3c(NCCCNCCCl)c2c1` [ICR191], the “mutation induction in MMR defective cell lines” value in [9] is “produce enhanced mutation rates in already MMR defective cell lines”.
